Laboratory results published in patent US20230241159A1, “Peptide Having Mesenchymal Stem Cell Mobilizing Activity” (StemRIM Inc., priority 2020, published 2023).

Experiments:
[1] = tested on: inflammatory bowel disease (IBD) model mice; experiment: Dextran sulfate sodium (DSS)-induced inflammatory bowel disease (IBD) model mice; type: in vivo, BALB/c mice
Method: Dextran sodium sulfate (DSS) (molecular weight 36,000 to 50,000, manufactured by MP Biomedicals, Product No. 160110) was dissolved in purified water to prepare a 2.5% (w/v) DSS aqueous solution. In addition, the peptide 1r10 (TFA salt) consisting of the amino acid sequence of SEQ ID NO: 1 was chemically synthesized by the solid phase method and used as the test substance.
BALB/c mice (9 weeks old, male) were allowed to drink the 2.5% DSS aqueous solution freely for 7 days to induce colitis. After that, the drinking was changed from DSS to tap water, and the large intestine was collected 3 days later (10 days after the start of drinking the DSS aqueous solution).
The IBD model mice prepared as described above were divided into the peptide 1r10 administration group (n=8) and the control group (n=8). Peptide administration was carried out by injecting into the tail vein, the peptide 1r10 solution adjusted to a concentration of 0.5 mg/mL using physiological saline as a solvent at an amount of 10 mL/kg on Days 1, 4, 7, 8 and 9 after the start of drinking the DSS aqueous solution (peptide dose of 5 mg/kg). The control group was injected with physiological saline solution at a dose of 10 mL/kg into the tail vein on Days 1, 4, 7, 8 and 9 after the start of drinking the DSS aqueous solution.
For 10 days from the start of drinking the DSS aqueous solution, the mice were weighed and observed for the symptoms (stool condition and bleeding) every day except Saturdays, Sundays, and holidays, and the degree of symptoms was evaluated by calculating the DAI (disease activity index) score. The DAI score was calculated by scoring the weight loss rate, stool condition, and stool bleeding as shown in the table below, and summing the scores of these three items. The scoring criteria were partly based on the method of Li et al. (PLoS One. 2015 Dec. 7; 10 (12): e0144101).
In addition, the length of the large intestine (from the colon to the rectum) collected 10 days after the start of drinking DSS was measured using a digital caliper.

[2] = tested on: atopic dermatitis model mice; experiment: MC903-induced atopic dermatitis model mice; type: in vivo, C57BL/6 mice
Description: MC903 (generic name: Calcipotriol) was used to induce atopic dermatitis (hereinafter, also referred to as “AD”) in mice. In addition, the peptide 1r10 (TFA salt) described in Reference Example 1 was used as the test substance.
C57BL/6 mice (C57BL/6 JJcl, 7-8 weeks old, male, microbial grade SPF) were obtained from Japan Claire Co., Ltd., acclimated in the animal breeding room for 5 days or more, and then subjected to the following experiments. An ethanol-adjusted MC903 solution was applied to the skin of the auricle of the mice at a dose of 2.25 nmol MC903/ear/once/day five times a week for 2 weeks (ten times in total) to induce atopic dermatitis (AD). This MC903-induced AD model is a model in which AD-like pathology can be reproduced in a short period of time (1-2 weeks) by artificially inducing the secretion of TSLP from epithelial cells, which is actually seen in AD patients, thereby eliciting a series of type 2 immune response cascades (Li M et al., Proc Natl Acad Sci USA. 2006; 103:11736-41.).
They were then divided into the control group and the peptide administration group (n=7 in each group), while the groups were equalized based on the auricle thickness in consideration of the difference in the severity of inflammation between individuals. For peptide administration, the solution of peptide 1r10 adjusted to 0.3 mg/mL with physiological saline was injected into the tail vein at a volume of 5 mL/kg ([…]) twice in total, once on the grouping day (Day 15) and once during the following 4 days (Day 16 to Day 19). For the control group a solution of bovine serum albumin (BSA) adjusted to 0.3 mg/mL with physiological saline was injected into the tail vein at a volume of 5 mL/kg (BSA dose of 1.5 mg/kg) twice in total, once on the grouping day (Day 15) and once during the following 4 days (Day 16 to Day 19).
During the peptide administration period (Day 15 to Day 19), ear swellings were measured daily to determine edema. Scaling, which is the main symptom of AD, was determined by photography (three times a week) using a digital camera (E-Ml II; Olympus) from a fixed base at a height of 13-14 cm from the auricle.
On the 4th day (Day 19) after the start of peptide administration, mice were placed under the influence of isoflurane anesthesia and euthanized with cervical spine dislocation. The skin at auricular inflammation site and its surroundings was quickly excised and collected while on ice to prevent protein denaturation of the sample. After removing excess hair and skin with tweezers, the collected auricular skin was immersed in 10% formalin and fixed at 4° C. overnight while shaking on ice using a shaker. After fixation, the skin was thoroughly washed with phosphate buffered saline (PBS) and trimmed, and then a paraffin block was made using an automatic embedding device (Excelsior ES; Thermo Scientific) with attention to the tissue polarity in the dorsoventral axis/left-right axis specific to the skin). Then, it was sliced (5 μm thick) with a rotary microtome (HM 325; Thermo Scientific), fixed on a slide glass, and subjected to various staining. As pathological analysis, skin thickness and infiltration of immune cells were evaluated by histochemical staining and fluorescent immunostaining, respectively.
To quantitatively evaluate the healing condition of the site of inflammation, hematoxylin-eosin (HE) staining of the paraffin thin sections (5 μm thick) of skin tissue generated as described above was performed to measure the dermal thickness. Specifically, three sections were prepared for each individual, and each section was photographed with a microscope (Keyence BZ-X710) at one site each of the center of inflammation, head side, and tail side (that is, a total of 9 sites were photographed per individual). […]

[3] = tested on: cerebral infarction model rat; experiment: Cerebral infarction model rat (right MCA occlusion), cerebral infarction volume ratio; type: in vivo, Crl:CD (SD) rats; conditions: 2 mg/kg tail vein at 105 minutes and 24 hours after right MCA occlusion; 48 hours after occlusion; control 34.1±1.1%; p<0.01
Description: Crl:CD (SD) rats (7 weeks old, male) were obtained from Charles River Laboratories, Japan, and after 6 days of acclimation, they were divided into the control group (n=8) and the peptide-administered group (n=8). On the following day of grouping, the rats were fixed in the supine position under 2% isoflurane inhalation anesthesia (anesthesia background: laughing gas:oxygen=7:3). To regulate body temperature during surgery, a thermometer probe connected to a digital thermometer was inserted into the rectum, and changes in the rectal temperature before and after surgery were monitored. […]
Forty-eight hours after the right MCA occlusion, the animals were decapitated under anesthesia with sodium pentobarbital (50 mg/kg, intraperitoneal administration), and the entire brain was excised to prepare brain sections with a thickness of 2 mm. […] The resulting photographs were subjected to image analysis to obtain actual measurements of the cerebral infarction area and cross-sectional area of the brain, and the cerebral infarct volume and the total brain volume from 4 mm anterior to bregma to 6 mm posterior to bregma were calculated using the calculation formula below. In addition, the cerebral infarction volume ratio was calculated from the cerebral infarction volume and the total volume of the brain (cerebral infarction volume ratio (%)=cerebral infarction volume/total brain volume x 1001. […]

mesenchymal stem cells = experiment: Solid-phase culture of peripheral blood after administration of HMGB1 peptide 1-44 (earlier experiments of the inventors); type: in vivo
Description: In addition, the colonies obtained as a result of culturing, on a solid phase, peripheral blood after administration of a peptide consisting of amino acid residues 1-44 of the human HMGB1 protein (hereinafter, HMGB1 peptide 1-44), which has an activity of mobilizing mesenchymal stem cells into peripheral blood, have been confirmed to have adherability to solid phase and self-renewal ability, and to be PDGFRα positive. They have also been confirmed to have a gene expression profile characteristic to mesenchymal stem cells, based on the results of clustering the transcriptome analysis data and performing gene ontology analysis.

[4] = 5 mg/kg tail vein, 8 to 10 days after the start of drinking DSS, versus saline control

Substance | body weight 10 days after the start of drinking the DSS aqueous solution ([1]; 5 mg/kg tail vein on Days 1, 4, 7, 8 and 9, Day 10) | changes in mouse body weight during the test period ([1]; 5 mg/kg tail vein on Days 1, 4, 7, 8 and 9 after start of drinking DSS, versus saline control) | DAI (disease activity index) score [1, 4] | stool score (sum of stool condition score and bleeding score) [1, 4] | colon length (length of the large intestine) ([1]; 5 mg/kg tail vein, ten days after the start of drinking DSS, versus saline control) | dermis thickness ([2]; 1.5 mg/kg tail vein twice, 4th day after start of administration (Day 19), HE staining, versus control) | scaling in the auricle ([2]; 1.5 mg/kg tail vein twice, 4 days after start of peptide administration, versus BSA control) | number of CD45-positive cells (infiltration of immune cells) in auricular skin sections ([2]; 1.5 mg/kg tail vein twice, Day 19, high power field 400×, versus control) | auricular thickness (edema) ([2]; 1.5 mg/kg tail vein twice, peptide administration period Day 15 to Day 19, versus BSA control) | changes in mouse body weight during the period of the study ([2]; Day 15 to Day 19, between peptide and control groups, p>0.05, repeated one-way ANOVA) | dermis thickness ([2]; dose of 0.5 mg/kg, versus control (data not shown)) | cerebral infarction volume ratio (mean±standard error) [3] | number of colonies obtained by solid-phase culture of peripheral blood, versus physiological saline (mesenchymal stem cells)
1r10: artificial sequence peptide consisting of the amino acid sequence of SEQ ID NO: 1 (30 amino acids) (IMWLCQYFFQCHKCAVKKKTWKEKKDRRHP) [Peptide 1r10] | showed a tendency to recover body weight | the degree of decrease was slower in the peptide-administered group than in the control group | lower in the peptide-administered group than in the control group | lower in the peptide-administered group than in the control group | longer than that of the control group | statistically significant decrease in dermis thickness | reduction of scaling in the auricle was observed | statistically significant decrease in the number of CD45-positive cells | statistically significant reduction in auricular thickness | not significantly different between the groups | statistically significant decrease in dermis thickness | 27.2±1.2% | –
HMGB1 peptide 1-44: peptide consisting of amino acid residues 1-44 of the human HMGB1 protein (MGKGDPKKPRGKMSSYAFFVQTCREEHKKKHPDASVNFSEFSKK; UniProt P09429 1-44, looked up, fragment) | – | – | – | – | – | – | – | – | – | – | – | – | larger in the peripheral blood after administration of HMGB1 peptide 1-44 than in the peripheral blood after administration of physiological saline
